“Also recorded” adds a separate entry of the source. Blank lines part the entries; values can stand above or below the compound they belong to.
What was measured:
FMND/CYP17A1 = target: T1, FMND/CYP17A1 (Homo sapiens, UniProt P05093+P16435); type: binding
T1 sequence (P16435+P05093 with tags, fused parts or gaps): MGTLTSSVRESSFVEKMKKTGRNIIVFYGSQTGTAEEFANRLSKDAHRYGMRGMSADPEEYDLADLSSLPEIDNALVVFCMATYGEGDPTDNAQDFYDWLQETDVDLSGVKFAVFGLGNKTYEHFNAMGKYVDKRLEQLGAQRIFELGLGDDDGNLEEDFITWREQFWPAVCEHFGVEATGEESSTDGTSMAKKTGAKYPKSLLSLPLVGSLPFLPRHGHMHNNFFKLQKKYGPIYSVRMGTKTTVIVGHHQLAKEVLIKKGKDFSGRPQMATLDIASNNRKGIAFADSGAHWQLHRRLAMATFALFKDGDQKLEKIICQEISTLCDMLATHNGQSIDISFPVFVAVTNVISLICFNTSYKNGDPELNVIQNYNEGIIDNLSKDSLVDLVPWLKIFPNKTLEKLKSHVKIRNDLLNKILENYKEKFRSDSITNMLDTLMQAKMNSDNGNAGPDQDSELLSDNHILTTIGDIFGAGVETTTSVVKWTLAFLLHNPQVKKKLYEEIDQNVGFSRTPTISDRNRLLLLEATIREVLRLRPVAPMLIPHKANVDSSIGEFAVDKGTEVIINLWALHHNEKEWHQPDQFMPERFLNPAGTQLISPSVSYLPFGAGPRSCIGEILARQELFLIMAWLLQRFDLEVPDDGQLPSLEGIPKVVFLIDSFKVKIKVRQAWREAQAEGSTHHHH

CYP17A1 = target: T2, CYP17A1 (Homo sapiens, UniProt P05093); assay: UV-visible spectral ligand binding assay, isolated CYP17A1; settings: difference spectra
T2 sequence (P05093 with tags, fused parts or gaps): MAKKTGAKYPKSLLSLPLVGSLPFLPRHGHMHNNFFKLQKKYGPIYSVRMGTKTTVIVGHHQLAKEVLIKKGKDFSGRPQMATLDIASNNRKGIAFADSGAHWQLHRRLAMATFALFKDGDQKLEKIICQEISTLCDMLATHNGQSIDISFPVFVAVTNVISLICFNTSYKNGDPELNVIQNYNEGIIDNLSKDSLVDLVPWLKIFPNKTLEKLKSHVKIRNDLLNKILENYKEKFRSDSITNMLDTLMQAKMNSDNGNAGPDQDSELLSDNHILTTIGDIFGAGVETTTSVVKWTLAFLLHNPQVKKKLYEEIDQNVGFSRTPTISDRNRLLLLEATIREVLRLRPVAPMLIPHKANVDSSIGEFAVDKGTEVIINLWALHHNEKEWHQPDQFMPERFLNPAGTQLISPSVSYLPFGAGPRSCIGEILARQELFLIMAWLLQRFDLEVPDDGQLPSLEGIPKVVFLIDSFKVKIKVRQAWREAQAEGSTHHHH

FMND/CYP3A4 = FMND/CYP3A4 (Homo sapiens, UniProt P08684); settings: FMND/CYP3A4 compared with CYP3A4
FMND/CYP21A2 = target: T3, FMND/CYP21A2 (Homo sapiens, UniProt P08686+P16435, R103K); type: binding; settings: FMND/CYP21A2 compared with CYP21A2
T3 sequence (P16435+P08686 with tags, fused parts or gaps P08686:R103K): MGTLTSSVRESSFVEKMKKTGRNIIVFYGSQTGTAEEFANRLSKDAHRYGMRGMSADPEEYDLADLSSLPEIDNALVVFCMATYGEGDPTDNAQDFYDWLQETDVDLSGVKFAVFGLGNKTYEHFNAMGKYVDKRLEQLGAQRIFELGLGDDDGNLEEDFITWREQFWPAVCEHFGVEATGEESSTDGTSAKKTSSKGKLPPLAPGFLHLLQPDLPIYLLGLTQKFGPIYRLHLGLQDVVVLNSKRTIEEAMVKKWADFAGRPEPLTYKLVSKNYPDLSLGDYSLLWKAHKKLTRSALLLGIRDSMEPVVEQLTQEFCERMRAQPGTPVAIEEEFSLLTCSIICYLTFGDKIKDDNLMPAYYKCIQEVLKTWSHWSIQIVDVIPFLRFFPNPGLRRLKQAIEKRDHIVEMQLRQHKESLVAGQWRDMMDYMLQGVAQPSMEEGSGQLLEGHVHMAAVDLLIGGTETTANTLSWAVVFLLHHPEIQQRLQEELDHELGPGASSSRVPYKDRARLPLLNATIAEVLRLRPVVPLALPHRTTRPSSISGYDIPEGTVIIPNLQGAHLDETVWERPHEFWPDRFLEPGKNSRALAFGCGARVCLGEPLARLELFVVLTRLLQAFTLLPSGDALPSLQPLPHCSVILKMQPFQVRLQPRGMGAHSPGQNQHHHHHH

FMND/CYP2A6 [1] = target: T4, FMND/CYP2A6 (Homo sapiens, UniProt P11509); type: biochemical; settings: coumarin metabolism to 7-hydroxycoumarin, cumene hydroperoxide, FMND/CYP2A6 vs CYP2A6
T4 sequence (P11509 with tags, fused parts or gaps): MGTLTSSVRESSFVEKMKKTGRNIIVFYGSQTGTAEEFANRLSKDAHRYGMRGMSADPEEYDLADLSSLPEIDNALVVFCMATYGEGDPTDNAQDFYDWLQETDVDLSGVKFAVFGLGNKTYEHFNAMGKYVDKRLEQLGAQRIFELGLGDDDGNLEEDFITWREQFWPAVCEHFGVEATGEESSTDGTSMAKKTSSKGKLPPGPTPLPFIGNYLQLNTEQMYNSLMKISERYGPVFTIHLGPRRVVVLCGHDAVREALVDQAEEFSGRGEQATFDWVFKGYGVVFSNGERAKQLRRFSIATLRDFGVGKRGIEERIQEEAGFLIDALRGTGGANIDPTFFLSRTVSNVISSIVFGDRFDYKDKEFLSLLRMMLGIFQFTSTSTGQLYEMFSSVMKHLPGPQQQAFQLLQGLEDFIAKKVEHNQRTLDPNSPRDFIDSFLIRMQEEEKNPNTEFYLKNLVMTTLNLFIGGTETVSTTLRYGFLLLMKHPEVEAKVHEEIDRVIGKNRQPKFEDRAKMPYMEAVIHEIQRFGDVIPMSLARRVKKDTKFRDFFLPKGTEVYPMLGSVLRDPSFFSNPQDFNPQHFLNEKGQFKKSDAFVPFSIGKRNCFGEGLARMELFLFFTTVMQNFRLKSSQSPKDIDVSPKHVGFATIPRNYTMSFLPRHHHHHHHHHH

CYP2A6 = target: T5, CYP2A6 (Homo sapiens, UniProt P11509); assay: UV-visible spectral ligand binding assay, isolated CYP2A6; settings: difference spectra
T5 sequence (P11509 with tags, fused parts or gaps): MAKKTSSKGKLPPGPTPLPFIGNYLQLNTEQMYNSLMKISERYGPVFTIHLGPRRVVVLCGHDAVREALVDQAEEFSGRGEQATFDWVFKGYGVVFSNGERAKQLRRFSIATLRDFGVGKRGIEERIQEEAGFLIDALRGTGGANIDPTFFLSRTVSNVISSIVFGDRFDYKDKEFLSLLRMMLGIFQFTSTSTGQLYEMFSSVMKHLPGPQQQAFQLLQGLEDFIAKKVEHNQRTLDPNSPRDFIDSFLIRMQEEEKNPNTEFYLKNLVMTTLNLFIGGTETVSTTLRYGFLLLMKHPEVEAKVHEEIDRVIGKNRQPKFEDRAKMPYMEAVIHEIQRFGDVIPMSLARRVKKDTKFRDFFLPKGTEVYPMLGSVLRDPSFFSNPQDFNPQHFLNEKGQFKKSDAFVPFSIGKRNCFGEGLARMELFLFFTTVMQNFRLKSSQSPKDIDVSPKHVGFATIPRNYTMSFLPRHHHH

FMND/CYP2A6 [2] = target: T4, FMND/CYP2A6; type: binding
FMND/CYP2D6 = type: binding, human; settings: difference spectra, FMND/CYP2D6 fusion, FMN domain oxidized
CYP2D6 = CYP2D6 (Homo sapiens, UniProt P10635); assay: UV-visible spectral ligand binding assay, isolated CYP2D6; settings: difference spectra
[3] = FMND/CYP17A1 compared with CYP17A1
[4] = FMND/CYP2A6 compared with CYP2A6

decrease in total / maximal absorbance change (ΔAmax) by FMN domain fusion (FMND/CYP21A2): ~30%
increase in the dissociation constant by FMN domain fusion (FMND/CYP21A2): 31%
SMILES: CC(=O)N1CCN(c2ccc(OCC3COC(Cn4ccnc4)(c4ccc(Cl)cc4Cl)O3)cc2)CC1 (stereo not drawn) [ketoconazole]
effect of FMN domain fusion on saturation (ΔAmax), in words (FMND/CYP17A1; [3]): no significant changes; also recorded: essentially no effect

effect on Km, in words (FMND/CYP2A6 [1]): little effect
effect on catalytic efficiency, in words (FMND/CYP2A6 [1]): decreased
spectral shift (binding mode) (CYP2A6): type I
change in total ligand binding by FMN domain fusion, in words (FMND/CYP2A6 [2]; [4]): relatively little change
increase in the Kd value by FMN domain fusion (FMND/CYP2A6 [2]; [4]): more than 2 fold
spectral shift (binding mode) (FMND/CYP2A6 [2]; difference spectra, FMND/CYP2A6 fusion, FMN domain oxidized): type I
SMILES: O=c1ccc2ccccc2o1 [coumarin]

Further lines, the compound ahead of its results:

SMILES: CC(=O)[C@@]1(O)CC[C@H]2[C@@H]3CC=C4C[C@@H](O)CC[C@]4(C)[C@H]3CC[C@@]21C [17α-hydroxypregnenolone]
decrease in Kd by FMN domain fusion (FMND/CYP17A1; [3]): 12%
effect of FMN domain fusion on saturation (ΔAmax), in words (FMND/CYP17A1; [3]): little effect
increase in overall binding efficiency (ΔAmax/Kd) by FMN domain fusion (FMND/CYP17A1; [3]): 16%
spectral shift (binding mode) (FMND/CYP17A1; difference spectra, FMND/CYP17A1 fusion, FMN domain oxidized): type I
spectral shift (binding mode) (CYP17A1): type I

SMILES: Clc1ccccc1C(c1ccccc1)(c1ccccc1)n1ccnc1 [clotrimazole]
reduction in the Kd value by FMND fusion (FMND/CYP3A4): 49%
reduction in total binding / final saturation (ΔAmax) by FMND fusion (FMND/CYP3A4): 58%

SMILES: CC1(C)SCCN(S(=O)(=O)c2ccc(Oc3ccncc3)cc2)[C@H]1C(=O)NO [prinomastat]
spectral shift (binding mode) (FMND/CYP2D6): type II
spectral shift (binding mode) (CYP2D6): type II

— article PMC10481364 (The Journal of Biological Chemistry, 2023)
